The record followed here is US10975068B2, “6-aminopyridin-3-yl thiazoles as modulators of RORγT” (Janssen Pharmaceutica NV, priority 2016, dated 2021).

pKd: −log10 of the molar value.

The target of this experiment is human RORγt ligand binding domain (RORγt LBD) (Homo sapiens (Human), UniProt P51449). Put plainly: RORγt ThermoFluor® assay (thermal shift binding). To be noted: read-out: ThermoFluor® Assay, Kd. The gist of the method: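 Binding was inferred from thermal stabilisation (ΔTm) of the E. coli-expressed RORγt LBD (0.065 mg/mL), monitored by 1,8-ANS (60 μM) emission at 500 nm during a 1 °C/min ramp. Buffer was Hepes 100 mM pH 7.0 with NaCl, GSH and Tween-20.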
Sequence of human RORγt ligand binding domain (RORγt LBD) (P51449 other isoform, or with tags, fused parts or gaps): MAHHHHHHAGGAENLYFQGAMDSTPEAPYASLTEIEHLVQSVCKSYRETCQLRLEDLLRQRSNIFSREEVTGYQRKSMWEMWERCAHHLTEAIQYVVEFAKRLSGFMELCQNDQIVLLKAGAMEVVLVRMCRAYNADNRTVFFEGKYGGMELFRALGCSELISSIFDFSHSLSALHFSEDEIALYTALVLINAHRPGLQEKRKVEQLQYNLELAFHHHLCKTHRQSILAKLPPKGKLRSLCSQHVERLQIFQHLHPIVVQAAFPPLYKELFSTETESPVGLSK
The term pKd denotes the Kd on a negative log10 scale, so that one unit is a factor of ten. `CC(C)(C)CNc1cc(C(F)F)c(-c2sc(C(=O)NCC(C)(C)O)nc2C(=O)N2C3CCC2CC3)cn1` [Example 116, 4-((1s,4s)-7-Azabicyclo[2.2.1]heptane-7-carbonyl)-5-(4-(difluoromethyl)-6-(neopentylamino)pyridin-3-yl)-N-(2-hydroxy-2-methylpropyl)thiazole-2-carboxamide]: the pKd was 8.44.

Turning to `C[C@H](NC(=O)c1nc(C(=O)N2CCC[C@@H]2C)c(-c2cnc(NC(C)(C)C)cc2C(F)(F)F)s1)C(C)(C)O` [Example 336, 5-[6-(tert-Butylamino)-4-(trifluoromethyl)-3-pyridyl]-N-[(1S)-2-hydroxy-1,2-dimethyl-propyl]-4-[(2S)-2-methylpyrrolidine-1-carbonyl]thiazole-2-carboxamide], the pKd was 8.96.

Regarding `CC(C)(O)CNC(=O)c1nc(C(=O)N2C3CCC2CC3)c(-c2cnc(NCC(C)(C)C(F)(F)F)cc2C(F)(F)F)s1` [Example 122, 4-((1s,4s)-7-Azabicyclo[2.2.1]heptane-7-carbonyl)-N-(2-hydroxy-2-methylpropyl)-5-(6-((3,3,3-trifluoro-2,2-dimethylpropyl)amino)-4-(trifluoromethyl)pyridin-3-yl)thiazole-2-carboxamide], the pKd was 8.77.

For `C[C@H](Nc1cc(C(F)(F)F)c(-c2sc(C(=O)NCC(C)(C)O)nc2C(=O)N2CC(F)(F)C[C@@H]2C)cn1)C1CC1` [Example 142, 5-(6-(((S)-1-Cyclopropylethyl)amino)-4-(trifluormethyl)pyridin-3-yl)-4-((S)-4,4-difluoro-2-methylpyrrolidine-1-carbonyl)-N-(2-hydroxy-2-methylpropyl)thiazole-2-carboxamide], the negative logarithm of the Kd (pKd) is 8.85.

In the case of `C[C@H]1CCCCN1C(=O)c1nc(C(=O)NCC(C)(C)O)sc1-c1cnc(NC2CCCC2)cc1C(F)(F)F` [Example 27, (S)-5-(6-(Cyclopentylamino)-4-(trifluoromethyl)pyridin-3-yl)-N-(2-hydroxy-2-methylpropyl)-4-(2-methylpiperidine-1-carbonyl)thiazole-2-carboxamide], the pKd was 9.28.

Consider `O=C(N[C@H]1C[C@H](O)C1)c1nc(C(=O)N2C3CCC2CC3)c(-c2cnc(N[C@@H](C3CC3)C(F)(F)F)cc2C(F)F)s1` [Example 318, 4-((1s,4s)-7-Azabicyclo[2.2.1]heptane-7-carbonyl)-5-(6-(((S)-1-cyclopropyl-2,2,2-trifluoroethyl)amino)-4-(difluoromethyl)pyridin-3-yl)-N-((1r,3S)-3-hydroxycyclobutyl)thiazole-2-carboxamide], for which the pKd was 8.09.

Consider `C[C@H]1CCCCN1C(=O)c1nc(C(=O)NCC(C)(C)O)sc1-c1cnc(NC2CCCC2)cc1C(F)F` [Example 41, (S)-5-(6-(Cyclopentylamino)-4-(difluoromethyl)pyridin-3-yl)-N-(2-hydroxy-2-methylpropyl)-4-(2-methylpiperidine-1-carbonyl)thiazole-2-carboxamide], for which the pKd was 9.13.

As for `CC[C@H](Nc1cc(C(F)F)c(-c2sc(C(=O)NCC(C)(C)O)nc2C(=O)N2CC(F)(F)C[C@@H]2C)cn1)C(F)(F)F` [Example 90, 4-((S)-4,4-Difluoro-2-methylpyrrolidine-1-carbonyl)-5-(4-(difluoromethyl)-6-(((S)-1,1,1-trifluorobutan-2-yl)amino)pyridin-3-yl)-N-(2-hydroxy-2-methylpropyl)thiazole-2-carboxamide], the pKd was 8.85.

With `C[C@H]1CC(F)(F)CN1C(=O)c1nc(C(=O)NCC(C)(C)O)sc1-c1cnc(NCC(C)(C)C)cc1C(F)F` [Example 115, (S)-4-(4,4-Difluoro-2-methylpyrrolidine-1-carbonyl)-5-(4-(difluoromethyl)-6-(neopentylamino)pyridin-3-yl)-N-(2-hydroxy-2-methylpropyl)thiazole-2-carboxamide], the pKd was 8.72.

`CC[C@H](Nc1cc(C(F)(F)F)c(-c2sc(C(=O)NCC(C)(C)O)nc2C(=O)N2CCC[C@@H]2C)cn1)C(F)(F)F` [Example 111, N-(2-Hydroxy-2-methylpropyl)-4-((S)-2-methylpyrrolidine-1-carbonyl)-5-(6-(((S)-1,1,1-trifluorobutan-2-yl)amino)-4-(trifluoromethyl)pyridin-3-yl)thiazole-2-carboxamide]: the pKd was 8.74.

With `CC(C)(O)CNC(=O)c1nc(C(=O)N2C3CCC2CC3)c(-c2cnc(NC3(C)CCC3)cc2C(F)F)s1` [Example 169, 4-((1s,4s)-7-Azabicyclo[2.2[1]heptane-7-carbonyl)-5-(4-(difluoromethyl)-6-((1-methylcyclobutyl)amino)pyridine-3-yl)-N-(2-hydroxy-2-methylpropyl))thiazole-2-carboxamide], the pKd is 8.57.

Regarding `C[C@H](Nc1cc(C(F)F)c(-c2sc(C(=O)NCC(C)(C)O)nc2C(=O)N2CC(F)(F)C[C@@H]2C)cn1)C(F)(F)F` [Example 135], the pKd is 8.46.

On to `C[C@H]1CC(F)(F)CN1C(=O)c1nc(C(=O)NCC(C)(C)O)sc1-c1cnc(NC2(C(F)(F)F)CCC2)cc1C(F)F` [Example 124, (S)-4-(4,4-Difluoro-2-methylpyrrolidine-1-carbonyl)-5-(4-(difluoromethyl)-6-((1-(trifluoromethyl)cyclobutyl)amino)pyridin-3-yl)-N-(2-hydroxy-2-methylpropyl)thiazole-2-carboxamide], for which the pKd was 9.28.

Take `C[C@H]1CCCN1C(=O)c1nc(C(=O)NCC(C)(C)O)sc1-c1cnc(NC2CCCC2)cc1C(F)(F)F` [Example 38, (S)-5-(6-(Cyclopentylamino)-4-(trifluoromethyl)pyridin-3-yl)-N-(2-hydroxy-2-methylpropyl)-4-(2-methylpyrrolidine-1-carbonyl)thiazole-2-carboxamide]: the pKd is 8.74.

Consider `C[C@H]1CCCN1C(=O)c1nc(C(=O)NC[C@@H](O)C(C)(C)O)sc1-c1cnc(NC(C)(C)C)cc1C(F)(F)F` (single isomer, unassigned) [Example 243, 5-(6-(tert-Butylamino)-4-(trifluoromethyl)pyridin-3-yl)-N—((R*)-2,3-dihydroxy-3-methylbutyl)-4-((S)-2-methylpyrrolidine-1-carbonyl)thiazole-2-carboxamide], for which the pKd was 8.14.

Consider `CC(C)(O)CNC(=O)c1nc(C(=O)N2C3CCC2CC3)c(-c2cnc(NC3(C)CCC3)cc2C(F)(F)F)s1` [Example 140, 4-((1s,4s)-7-Azabicyclo[2.2.1]heptane-7-carbonyl)-N-(2-hydroxy-2-methylpropyl)-5-(6-((1-methylcyclobutyl)amino)-4-(trifluoromethyl)pyridin-3-yl)thiazole-2-carboxamide], for which the pKd was 8.77.

Consider `C[C@H]1CC(F)(F)CN1C(=O)c1nc(C(=O)NCC(C)(C)O)sc1-c1cnc(NC2(C)CCC2)cc1C(F)(F)F` [Example 141, (S)-4-(4,4-Difluoro-2-methylpyrrolidine-1-carbonyl)-N-(2-hydroxy-2-methylpropyl)-5-(6-((1-methylcyclobutyl)amino)-4-(trifluoromethyl)pyridin-3-yl)thiazole-2-carboxamide], for which the pKd was 9.17.

In the case of `C[C@H]1CCCN1C(=O)c1nc(C(=O)NCc2n[nH]c(=O)o2)sc1-c1cnc(NC(C)(C)C)cc1C(F)(F)F` [Example 305, (S)-5-(6-(tert-Butylamino)-4-(trifluoromethyl)pyridin-3-yl)-4-(2-methylpyrrolidine-1-carbonyl)-N-((5-oxo-4,5-dihydro-1,3,4-oxadiazol-2-yl)methyl)thiazole-2-carboxamide], the pKd is 8.31.

For `C[C@H](NC(=O)c1nc(C(=O)N2CC(F)(F)C[C@@H]2C)c(-c2cnc(N[C@@H](C)C(F)(F)F)cc2C(F)F)s1)C(C)(C)O` [Example 197], the pKd was 8.77.

As for `C[C@H](Nc1cc(C(F)(F)F)c(-c2sc(C(=O)NCC(C)(C)O)nc2C(=O)N2C3CCC2CC3)cn1)C1CC1` [Example 51, 4-((1s,4s)-7-Azabicyclo[2.2.1]heptane-7-carbonyl)-5-(6-(((S)-1-cyclopropylethyl)amino)-4-(trifluoromethyl)pyridin-3-yl)-N-(2-hydroxy-2-methylpropyl)thiazole-2-carboxamide], the pKd is 8.49.

For the compound `C[C@H](Nc1cc(C(F)F)c(-c2sc(C(=O)NCC(C)(C)O)nc2C(=O)N2CCCC[C@@H]2C)cn1)C1CC1` [Example 37, 5-(6-(((S)-1-Cyclopropylethyl)amino)-4-(difluoromethyl)pyridin-3-yl)-N-(2-hydroxy-2-methylpropyl)-4-((S)-2-methylpiperidine-1-carbonyl)thiazole-2-carboxamide], the pKd is 9.19.

On to `C[C@H](Nc1cc(C(F)(F)F)c(-c2sc(C(=O)NCC(C)(C)O)nc2C(=O)N2CCC[C@@H]2C)cn1)C(F)(F)F` [Example 78, N-(2-Hydroxy-2-methylpropyl)-4-((S)-2-methylpyrrolidine-1-carbonyl)-5-(4-(trifluoromethyl)-6-(((S)-1,1,1-trifluoropropan-2-yl)amino)pyridin-3-yl)thiazole-2-carboxamide], for which the pKd was 8.49.

Regarding `C[C@H]1CCCN1C(=O)c1nc(C(=O)NCC(C)(C)O)sc1-c1cnc(NCC(C)(C)C)cc1C(F)(F)F` [Example 87, (S)—N-(2-Hydroxy-2-methylpropyl)-4-(2-methylpyrrolidine-1-carbonyl)-5-(6-(neopentylamino)-4-(trifluoromethyl)pyridin-3-yl)thiazole-2-carboxamide], the pKd was 8.89.

Turning to `C[C@H]1CCCN1C(=O)c1nc(C(=O)NCC(C)(C)O)sc1-c1cnc(NC(C)(C)C)cc1C(F)(F)F` [Example 52, (S)-5-(6-(tert-Butylamino)-4-(trifluoromethyl)pyridin-3-yl)-N-(2-hydroxy-2-methylpropyl)-4-(2-methylpyrrolidine-1-carbonyl)thiazole-2-carboxamide], the pKd was 8.92.

In the case of `CC[C@H](Nc1cc(C(F)(F)F)c(-c2sc(C(=O)NCC(C)(C)O)nc2C(=O)N2CCC[C@@H]2C)cn1)C1CC1` (relative stereo) [Example 128, 5-(6-(((S*)-1-Cyclopropylpropyl)amino)-4-(trifluoromethyl)pyridin-3-yl)-N-(2-hydroxy-2-methylpropyl)-4-((S)-2-methylpyrrolidine-1-carbonyl)thiazole-2-carboxamide], the pKd is 8.59.
